Data as given in patent US8883798B2, “Pyrimidine compounds inhibiting the formation of nitric oxide and prostaglandin E2, method of production thereof and use thereof” (Ustav Organicke Chemie a Biochemie Akademie Ved CR, V.V.I., priority 2011, dated 2014).

Experiments:
[1] = system: production of prostaglandin E2 (PGE2); assay: Production of prostaglandin E2 (PGE2) in cultures of mouse peritoneal cells stimulated with LPS (ELISA kit); type: cell-based, mice; settings: for Production of prostaglandins IC50 (μmol · 1^−1) average value and range of values: Table 3B, 6 h; for Production of prostaglandins in % of the controls: Table 3A, substance 50 μmol·l^−1, 6 h
Method in brief: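 C57BL/6 mouse peritoneal cells (3×10^6/mL) stimulated with LPS (10 ng/mL). PGE2 measured by ELISA.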

[2] = system: production of nitric oxide (NO); assay: Production of nitric oxide (NO) in cultures of mouse peritoneal cells stimulated with IFN-γ plus LPS (Griess reagent); type: cell-based, mice; settings: substance 50 μmol·l^−1, IFN-g plus LPS, 24 h
Method in brief: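 C57BL/6 mouse peritoneal cells (2×10^6/mL) stimulated with IFN-γ (5000 pg/mL) plus LPS (100 pg/mL), compounds at 50 μmol·l^−1. Nitrite measured by Griess reagent after 24 h, expressed as % of stimulated control (set 100%); IC50 is concentration reducing NO by 50%.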

peritoneal cells of mice = assay: Cell viability of mouse peritoneal cells (WST-1 kit); type: cell-based; settings: substance 50 μmol·l^−1, 24 h; for Cell viabilities in % of the controls: Table 3B; for Cell viability in % of the controls: Table 3A
Method in brief: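 C57BL/6 mouse peritoneal cells (1×10^6/mL) cultured 24 h with compounds at 50 μmol·l^−1. Viability read with WST-1 tetrazolium salt and expressed as percent of untreated control cells (100%).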

Production of prostaglandins IC50 (μmol · 1^−1) average value and range of values [1]	SMILES	Production of nitric oxide in % of the controls ([2]; Table 3B)	Cell viabilities in % of the controls (peritoneal cells of mice)	Production of prostaglandins in % of the controls [1]	Production of nitric oxide in % of the controls ([2]; Table 3A)	Cell viability in % of the controls (peritoneal cells of mice)
65.97 ± 25.34; n = 2 μmol · 1^−1	CCCCc1c(-c2ccncc2)nc(N)nc1-c1cc2ccccc2s1 [Substance 129]	63.94 ± 1.84 n = 4 % of the controls	85.12 ± 0.76; n = 8 % of the controls	–	–	–
49.17 ± 9.72; n = 4 μmol · 1^−1	CCCCc1c(-c2ccccc2)nc(N)nc1-c1cc2ccccc2o1 [Substance 116]	72.69 ± 10.36; n = 4 % of the controls	95.24 ± 4.78; n = 8 % of the controls	–	–	–
72.55 ± 19.06; n = 2 μmol · 1^−1	CCCCc1c(-c2cccnc2)nc(N)nc1-c1cccc2ccccc12 [Substance 136]	70.28 ± 3.71; n = 4 % of the controls	111.00 ± 0.97; n = 4 % of the controls	–	–	–
87.25 ± 13.99; n = 2 μmol · 1^−1	CCCCc1c(Cl)nc(N)nc1-c1cc2ccccc2o1 [Substance 126]	78.18 ± 9.03; n = 4 % of the controls	102.56 ± 5.92; n = 4 % of the controls	–	–	–
38.26 ± 14.52; n = 8 μmol · 1^−1	CCCCc1c(-c2ccccn2)nc(N)nc1-c1cc2ccccc2s1 [Substance 127]	40.88 ± 6.83; n = 4 % of the controls	130.66 ± 2.87; n = 8 % of the controls	–	–	–
28.69 ± 0.00; n = 2 μmol · 1^−1	CCCCc1c(-c2ccccn2)nc(N)nc1-c1cccc2ccccc12 [Substance 135]	18.45 ± 5.66; n = 6 % of the controls	64.97 ± 12.85; n = 8 % of the controls	–	–	–
56.94 ± 12.51; n = 6 μmol · 1^−1	CCCCc1c(-c2ccsc2)nc(N)nc1-c1cccs1 [Substance 111]	57.52 ± 1.81; n = 4 % of the controls	105.47 ± 5.51; n = 8 % of the controls	–	–	–
27.85 ± 10.82; n = 8 μmol · 1^−1	CCCCc1c(-c2ccc(OC)cc2)nc(N)nc1-c1cccc2ccccc12 [Substance 134]	33.09 ± 7.25; n = 8 % of the controls	93.40 ± 5.59; n = 12 % of the controls	–	–	–
34.2 ± 8.01; n = 4 μmol · 1^−1	CCCCc1c(-c2cccc3ccccc23)nc(N)nc1-c1cccc2ccccc12 [Substance 141]	57.66 ± 6.53; n = 6 % of the controls	107.73 ± 5.36; n = 8 % of the controls	–	–	–
31.10 ± 10.43; n = 4 μmol · 1^−1	CCCCc1c(-c2cccnc2)nc(N)nc1-c1cc2ccccc2s1 [Substance 128]	64.91 ± 6.60 n = 4 % of the controls	79.62 ± 4.12; n = 8 % of the controls	–	–	–
66.80 ± 8.64; n = 4 μmol · 1^−1	CCCCc1c(-c2ccc(F)cc2)nc(N)nc1-c1ccoc1 [Substance 103]	66.44 ± 3.19; n = 6 % of the controls	147.62 ± 3.25; n = 8 % of the controls	–	–	–
9.14 ± 2.71; n = 4 μmol · 1^−1	CCCCc1c(Cl)nc(N)nc1-c1cccc2ccccc12 [Substance 142]	43.99 ± 6.06; n = 6 % of the controls	114.07 ± 8.00; n = 8 % of the controls	–	–	–
22.90 ± 11.94; n = 4 μmol · 1^−1	CCCCc1c(Cl)nc(N)nc1-c1ccsc1 [Substance 115]	37.43 ± 8.29; n = 6 % of the controls	107.17 ± 2.03; n = 8 % of the controls	–	–	–
40.66 ± 6.87; n = 2 μmol · 1^−1	CCCCc1c(-c2ccsc2)nc(N)nc1-c1cccc2ccccc12 [Substance 140]	30.16 ± 2.96; n = 4 % of the controls	94.34 ± 2.62; n = 4 % of the controls	–	–	–

The remaining lines, values behind:

SMILES	Production of prostaglandins IC50 (μmol · 1^−1) average value and range of values [1]	Production of nitric oxide in % of the controls ([2]; Table 3B)	Cell viabilities in % of the controls (peritoneal cells of mice)	Production of prostaglandins in % of the controls [1]	Production of nitric oxide in % of the controls ([2]; Table 3A)	Cell viability in % of the controls (peritoneal cells of mice)
CCCCc1c(-c2ccc(OC)cc2)nc(N)nc1-c1cccnc1 [Substance 80]	41.84 ± 7.54; n = 2 μmol · 1^−1	35.18 ± 4.39; n = 4 % of the controls	103.13 ± 4.24; n = 8 % of the controls	–	–	–
CC(C)c1c(Cl)nc(N=CN(C)C)nc1Cl [Substance 16]	–	–	–	32.10 ± 2.31 % of the controls	7.32 ± 2.68 % of the controls	134.83 ± 16.51 % of the controls
CCCCc1c(-c2ccco2)nc(N)nc1-c1cccs1 [Substance 99]	13.25 ± 6.33; n = 4 μmol · 1^−1	31.27 ± 2.12; n = 4 % of the controls	55.22 ± 5.10; n = 4 % of the controls	–	–	–
C=CCc1c(Cl)nc(NC=O)nc1Cl [Substance 57]	–	–	–	16.42 ± 0.64 % of the controls	1.21 ± 0.28 % of the controls	95.37 ± 15.40 % of the controls
CCCCc1c(-c2ccc(F)cc2)nc(N)nc1-c1ccc(OC)cc1 [Substance 73]	3.92 ± 1.85; n = 4 μmol · 1^−1	65.09 ± 4.11; n = 6 % of the controls	130.12 ± 10.97; n = 12 % of the controls	–	–	–
CCCCc1c(Cl)nc(N)nc1-c1ccco1 [Substance 101]	6.60 ± 5.34; n = 4 μmol · 1^−1	29.35 ± 6.38; n = 6 % of the controls	68.95 ± 3.02; n = 8 % of the controls	–	–	–
CCCCc1c(Cl)nc(N)nc1-c1cccnc1 [Substance 82]	92.02 ± 8.95; n = 4 μmol · 1^−1	12.07 ± 2.39; n = 8 % of the controls	45.38 ± 2.92; n = 12 % of the controls	–	–	–
CCCCc1c(Cl)nc(N)nc1-c1ccccc1 [Substance 68]	18.12 ± 0.99; n = 6 μmol · 1^−1	27.78 ± 2.11; n = 4 % of the controls	94.17 ± 8.43; n = 8 % of the controls	–	–	–
CCCCc1c(Cl)nc(N)nc1-c1ccc(F)cc1 [Substance 71]	26.66 ± 11.71; n = 4 μmol · 1^−1	37.07 ± 6.31; n = 4 % of the controls	94.59 ± 7.75; n = 4 % of the controls	–	–	–
Cc1c(Cl)nc(NC=O)nc1Cl [Substance 48]	–	–	–	36.31 ± 1.99 % of the controls	1.35 ± 0.01 % of the controls	66.37 ± 8.13 % of the controls
CCCc1c(Cl)nc(N=CN(C)C)nc1Cl [Substance 15]	–	–	–	14.76 ± 0.52 % of the controls	8.42 ± 4.75 % of the controls	109.35 ± 8.88 % of the controls
CCCc1c(Cl)nc(NC=O)nc1Cl [Substance 50]	–	–	–	14.20 ± 7.00 % of the controls	3.95 ± 2.27 % of the controls	98.59 ± 6.59 % of the controls
CN(C)C=Nc1nc(Cl)c(-c2ccccc2)c(Cl)n1 [Substance 24]	–	–	–	18.45 ± 13.68 % of the controls	4.97 ± 2.00 % of the controls	80.00 ± 11.61 % of the controls
CCc1c(Cl)nc(NC=O)nc1Cl [Substance 49]	–	–	–	20.58 ± 2.13 % of the controls	5.76 ± 2.48 % of the controls	111.37 ± 10.44 % of the controls
